From patent publication US11807852B2, “Compositions and methods for reactivating latent immunodeficiency virus” (The J. David Gladstone Institutes, a testamentary trust …, priority 2014, dated 2023) come the findings set out here.

The test system of test [1] is latent HIV-1 in CD4+ T cells from HIV-1-infected individuals. The test can be described thus: Intracellular HIV-1 mRNA (ddPCR) in CD4+ T cells from HIV-1-infected individuals treated ex vivo. It counts as cell-based. From the text:
Four aviremic HIV-1-infected individuals were recruited from the SCOPE cohorts at the University of California. San Francisco. Table 2 details the characteristics of the study participants.
Peripheral blood mononuclear cells (PBMCs) from whole blood or continuous flow centrifugation leukapheresis product were purified using density centrifugation on a Ficoll-Hypaque gradient. Resting CD4^+ lymphocytes were enriched by negative depletion with an EasySepHuman CD4^+ T Cell Isolation Kit (Stemcell). Cells were cultured in RPMI medium supplemented with 10% fetal bovine serum, penicillin/streptomycin and 5 μM saquinavir. Five million resting CD4′ lymphocytes were stimulated with latency-reversing agents (LRAs) at the indicated concentrations (20-500 nM AZ391, 100 nM JQ1, 25 μl/1×10^6 T cells αCD3/αCD28 Dynabeads (Life Technologies) for 48 hours. After LRA treatment, cells were collected, lysed and total RNA was isolated with an RNeasy kit (Quiagen). A Superscript III One-Step RT-PCR system (Life Technologies) was used to generate and pre-amplify cell-associated viral mRNA. Reaction mixes contained 15 μl of a PCR mix containing reaction mix, Superscript III, primers (900 nM final concentration) and 10 μl purified RNA. Pre-amplification was carried out using the following steps: reverse transcription at 50° C. for 30 min, denaturation at 95° C. for 2 min, 10 cycles of amplification (94° C. 15 s, 55° C. 30 s, 68° C. 5 min) on a GeneAmp PCR system 9700 (Thermo Fisher). Subsequently, droplet digital PCR (ddPCR) was applied to quantify pre-amplified cDNA. Each 25 μl ddPCR mix comprised the ddPCR Probe Supermix (no dUTP), 900 nM primers, 250 nM probe, and 4 μl cDNA. The following cycling conditions were used: 10 minutes at 95° C. […] Finally, samples were amplified on a BioRad C1000 Thermocycler and analyzed using a BioRad QX100 ddPCR Reader. […]
Next, AZ391 was tested in CD4^+ T cells from HIV-1-infected individuals on suppressive ART. […] After 48 hours, levels of intracellular HIV-1 mRNA were measured by droplet digital RT-PCR using a previously published primer/probe set (Laird et al., 2015). […]

Test [2] has as its system latent HIV-1 in human lymphocyte aggregate cultures (HLAC) from tonsils. The test can be described thus: Ex vivo infected tonsil HLAC latency model, HIV-luciferase reporter virus. It counts as cell-based. As to conditions: in combination with JQ1. As for the experimental part:
HLAC cells were isolated by Ficoll-Histopaque density gradient centrifugation of sheared tonsils from HIV-seronegative donors (Vanderbilt University Medical Center, Nashville, Tenn.). Isolated HLAC cells were counted, collected as pellets by centrifugation at 1500 rpm for 5 min at room temperature, and re-suspended in the appropriate volume of concentrated viral NL4.3-Luc supernatant. Typically, 50-100 ng of p24 Gag per […] HLAC were used. Spinoculations were performed in 96-well V-bottom plates in volumes of 200 μl or less. Cells and virus were centrifuged at 2000 rpm for 1.5-2 h at room temperature. After spinoculation, cells were pooled and cultured at 1×10^6 cells/ml in RPMI 1640 containing 10% FBS and supplemented with 5 μM Saquinavir (Sigma-Aldrich) for 3 days to prevent any residual spreading infection.
For reactivation of latent HIV-1 provirus, cells were counted and collected as pellets by centrifugation at 1500 rpm for 10 min. […] After 15 min of lysis, the luciferase activity in cell extracts was quantified with a Perkin Elmer EnSpire 2300 Multimode plate reader after mixing 20 μl of lysate with 100 μl of substrate (Luciferase Assay System-Promega). Relative light units (RLU) were normalized to protein content determined by Bradford assay (BioRad). Cell viability was measured with CellTiter-Blue Cell Viability Assay (Promega).
(In a reporter assay the amount or activity of a reporter protein is the signal.)

As to `N#Cc1cc(C(=O)NCCCN2CCCC2)cc(-c2ccccc2N2CCN(CCc3c[nH]c4ccccc34)CC2)c1` [AZ391], the “mean increase of intracellular HIV-1 mRNA levels” value in test [1] (500 nM, 48 hours, three additional donors) is given as 1.5-10 fold. Besides, the “intracellular HIV-1 mRNA, combination effect” value in test [1] (combination with JQ1) is reported as “no additive or synergistic effects”. For the same molecule, the “intracellular HIV-1 mRNA levels” value in test [1] (increasing concentrations (maximal 500 nM), 48 hours, one individual) is on record as “increased intracellular HIV-1 mRNA levels in a dose-dependent manner”. Further, the “reactivation of latent HIV-1 (luciferase)” value in test [2] is “Positive effects”; in test [2] (listed as X2), “reactivates latent HIV-1”.
